Measurements published in patent US20150338330A1, “Method for Comprehensive Assessment of Platelet Aggregation” (FUJIMORI KOGYO CO., LTD.,, priority 2012, published 2015).

Columns and labels:
Assay type in all cases: cell-based
platelets [1] = experiment: Multiplate impedance-based whole blood platelet aggregation, ADP (final 6.5 μM); details: ADP 6.5 μM
Experimental: To provide controls, whole blood platelet aggregation was similarly measured for blood to which AR-C66096 was added to a final concentration of 25, 50, 100, or 250 nM, using Multiplate (impedance-based platelet aggregability analyzer, Dynabite GmbH). As the platelet-activating reagent, ADP (final concentration, 6.5 μM) was used. […] That is, in the absence of a physical load by blood flow or the like, platelet aggregates that have once adhered/aggregated to the electrode were maintained without breakdown, leading to the increase in the electric resistance.

platelets [2] = experiment: Filter back-pressure measurement of platelet aggregation, ADP reagent (final 5.6 μM), citrated blood; set-up: area under the curve of the pressure waveform: unit not given beside the values; details: for area under the curve of the pressure waveform: 60 μl/minute, 5 minutes
Experimental: (§1) The apparatus in FIG. 1 was prepared for use in the following experiments.
(§2) As the container 1 (blood reservoir), a cylindrical acrylic container having a capacity of 450 μl (inner diameter, 6 mm; depth, 16 mm) was used.
(§3) As the filter, a circular nickel micromesh filter having 30 μm×30 μm square openings (pitch size, 45 μm) and a diameter of 1 mm, placed at the center of the filter section was used.
To the blood reservoir, 13 μl of […] ADP reagent (Dynabite GmbH, Germany) (final concentration, 5.6 μM) was added, and 450 μl of blood collected in a Terumo blood collection tube (Venoject, containing 3.13% sodium citrate) was added thereto. The resulting mixture was mixed in the blood reservoir, and the filter device was connected to the blood reservoir. One minute after the mixing of the blood with the ADP reagent, mineral oil was injected into the blood reservoir at a flow rate of 60 μl/minute to inject the blood into the filter device.
The back pressure exerted on the mineral oil was continuously monitored for 5 minutes at intervals of 1 second using the pressure sensor. In addition, the same measurement was carried out for blood to which AR-C66096 (platelet P2Y12 receptor inhibitor; Tocris Bioscience, UK) was added to a final concentration of 25, 50, 100, or 250 nM.

platelets [3] = experiment: Filter back-pressure measurement of platelet aggregation, arachidonic acid (6.25 mM or 10 mM), citrated blood
Experimental: as §1, §2, §3
To the blood reservoir, 30 or 50 μl (final concentration, 6.25 mM or 10 mM, respectively) of 100 mM arachidonic acid (manufactured by Dynabite GmbH) was added, and 450 μl of blood collected in a Terumo blood collection tube (Venoject, containing 3.13% sodium citrate) was added thereto. After mixing the resulting mixture, the filter device was connected to the blood reservoir. One minute after the mixing of the blood with the collagen reagent, mineral oil was injected into the blood reservoir at a flow rate of 60 μl/minute to inject the blood into the filter device.
The back pressure exerted on the mineral oil was continuously monitored for 5 minutes at intervals of 1 second using the pressure sensor. In addition, the same measurement was carried out for a mixture prepared by mixing 50 μl of an arachidonic acid reagent with blood to which aspirin was added to a final concentration of 100 μM.

platelets [4] = experiment: Multiplate impedance-based whole blood platelet aggregation, collagen (final 3.2 μg/ml); details: aspirin 100 μM; collagen 3.2 μg/ml
Experimental: To provide controls, whole blood platelet aggregation was similarly measured for blood to which aspirin was added to a final concentration of 100 μM, and blood to which both 50 μM aspirin and 250 μM AR-C66096 were added, using Multiplate (impedance-based platelet aggregability analyzer, Dynabite GmbH). As the platelet-activating reagent, collagen (final concentration, 3.2 μg/ml) was used.

platelets [5] = experiment: Filter back-pressure measurement of platelet aggregation, PAR1-activating reagent (SFLLRN), citrated blood; details: aspirin 100 μM
Experimental: The apparatus in FIG. 1 was prepared for use in the following experiments. As the container 1 (blood reservoir), a cylindrical acrylic container having a capacity of […] (inner diameter, 6 mm; depth, 16 mm) was used. As the filter, a circular nickel micromesh filter having 30 μm×30 μm square openings (pitch size, 45 μm) and a diameter of 1 mm, placed at the center of the filter section was used. To the blood reservoir, 20 μl of 1 mM PAR1-activating reagent (peptide sequence, […]; manufactured by Dynabite GmbH) was added, and 450 μl of blood collected in a Terumo blood collection tube (Venoject, containing 3.13% sodium citrate) was added thereto. After mixing the resulting mixture, the filter device was connected to the blood reservoir. […] The back pressure exerted on the mineral oil was continuously monitored for 5 minutes at intervals of 1 second using the pressure sensor. The same measurement was carried out for blood to which aspirin was added to a final concentration of 100 μM.

platelets [6] = experiment: Filter back-pressure measurement of platelet aggregation, PAR4-activating reagent (AYPGKF), citrated blood; details: aspirin 100 μM
Experimental: (§4) The apparatus in FIG. 1 was prepared for use in the following experiments. As the container 1 (blood reservoir), a cylindrical acrylic container having a capacity of 450 μl (inner diameter, 6 mm; depth, 16 mm) was used. As the filter, a circular nickel micromesh filter having 30 μm×30 μm square openings (pitch size, 45 μm) and a diameter of 1 mm, placed at the center of the filter section was used. To the blood reservoir, 20 μl of 20 mM PAR4-activating reagent (peptide sequence, AYPGKF; manufactured by Dynabite GmbH) was added, and 450 μl of blood collected in a Terumo blood collection tube (Venoject, containing 3.13% sodium citrate) was added thereto. After mixing the resulting mixture, the filter device was connected to the blood reservoir. One minute after the mixing of the blood with the collagen reagent, mineral oil was injected into the blood reservoir at a flow rate of 60 μl/minute to inject the blood into the filter device. The back pressure exerted on the mineral oil was continuously monitored for 5 minutes at intervals of 1 second using the pressure sensor. The same measurement was carried out for blood to which aspirin was added to a final concentration of 100 μM.

platelets [7] = experiment: Filter back-pressure measurement of platelet aggregation, collagen reagent (final 0.7 μg/ml), citrated blood; details: aspirin 100 μM; collagen 0.7 μg/ml
Experimental: as §4, with “reservoir, 13” for “reservoir, 20”, “of 25 μg/ml (final concentration, 0.7 μg/ml) collagen” for “of 20 mM PAR4-activating”, “reagent (manufactured” for “reagent (peptide sequence, AYPGKF; manufactured”, “sensor. In addition, the” for “sensor. The”, “100 μM, or blood to which both 50 μM aspirin and 250 μM AR-C66096 were added.” for “100 μM.”

platelets [8] = experiment: Filter back-pressure measurement, collagen reagent (final 1.4 μg/ml), repeated 5 times; details: collagen final 1.4 μg/ml; 5 times of measurement; no inhibitor
Experimental: as §1, §2, §3
To the blood reservoir, 13 μl of 50 μg/ml (final concentration, 1.4 μg/ml) collagen reagent (manufactured by Dynabite GmbH) was added, and 450 μl of blood collected in a Terumo blood collection tube (Venoject, containing 3.13% sodium citrate) was added thereto. After mixing the resulting mixture, the filter device was connected to the blood reservoir. One minute after the mixing of the blood with the collagen reagent, mineral oil was injected into the blood reservoir at a flow rate of 60 μl/minute to inject the blood into the filter device.
The back pressure exerted on the mineral oil was continuously monitored for 5 minutes at intervals of 1 second using the pressure sensor. The measurement was repeated 5 times.

[9] = AR-C66096 25-250 nM, ADP 5.6 μM

With `CCCSc1nc(N)c2ncn([C@@H]3O[C@H](COP(=O)(O)OP(=O)(O)C(F)(F)P(=O)(O)O)[C@@H](O)[C@H]3O)c2n1` [AR-C66096] as the compound, how does the “AUC (Multiplate impedance)” value (platelets [1]; AR-C66096 25 nM) read?
The value was 23.

And the “AUC (Multiplate impedance)” value (platelets [1]; AR-C66096 50 nM)?
The value was 19.

What about the “AUC (Multiplate impedance)” value (platelets [1]; AR-C66096 100 nM) of the same compound?
Its value is 15.

And the “AUC (Multiplate impedance)” value (platelets [1]; AR-C66096 250 nM)?
The value was 17.

And the “concentration dependence of AUC (Multiplate)” value (platelets [1]; AR-C66096 25-250 nM)?
The value was “no concentration dependence was found”.

What about the “area under the curve of the pressure waveform” value (platelets [2]; AR-C66096 25 nM, ADP 5.6 μM) of the same compound?
Its value is 11.75.

What about the “stability and persistence of platelet aggregates” value (platelets [2]; AR-C66096 50 nM or 100 nM, arch-shaped pressure curves) of the same compound?
The value was “suppressed”.

And the “area under the curve of the pressure waveform” value (platelets [2]; AR-C66096 50 nM, ADP 5.6 μM)?
Its value is 8.7.

What about the “area under the curve of the pressure waveform” value (platelets [2]; AR-C66096 100 nM, ADP 5.6 μM) of the same compound?
Its value is 8.05.

And the “area under the curve of the pressure waveform” value (platelets [2]; AR-C66096 250 nM, ADP 5.6 μM)?
The value was 7.95.

What about the “beginning of the pressure increase” value (platelets [2]; [9]) of the same compound?
Its value is “delayed”.

What about the pressure increase (platelets [2]; [9]) of the same compound?
The pressure increase was “suppressed the pressure increase in a concentration-dependent manner”.

Which “platelet activation / pressure” value (platelets [3]; arachidonic acid 6.25 mM or 10 mM) does the source give for `CCCCC/C=C\C/C=C\C/C=C\C/C=C\CCCC(=O)O` [arachidonic acid] here?
Its value is “activated platelets to increase the pressure”.

Which results are given for `CC(=O)Oc1ccccc1C(=O)O` [aspirin]?
AUC of the electric resistance (Multiplate) (platelets [4]): 28; effect on Multiplate aggregation (platelets [4]): an effect of aspirin could be found; aggregation waveform obtained by the PAR1-activating peptide (platelets [5]): not inhibited; aggregation waveform obtained by the PAR4-activating peptide (platelets [6]): not inhibited; pressure increase (platelets [3]; aspirin 100 μM, 50 μl arachidonic acid reagent (10 mM)): suppressed; beginning of the pressure increase (platelets [7]): delayed; pressure increase (platelets [7]): suppressed

collagen was tested. Which “area under the curve of the pressure waveform (mean±SD)” value (platelets [8]) did it give?
Its value is 15.11±0.8.
